For the assay, the target named is T1, Human Factor XIIa (Homo sapiens, UniProt P00748).
T1 construct: purchased Enzyme Research Laboratories
T1 sequence (P00748 373-615 limits assumed): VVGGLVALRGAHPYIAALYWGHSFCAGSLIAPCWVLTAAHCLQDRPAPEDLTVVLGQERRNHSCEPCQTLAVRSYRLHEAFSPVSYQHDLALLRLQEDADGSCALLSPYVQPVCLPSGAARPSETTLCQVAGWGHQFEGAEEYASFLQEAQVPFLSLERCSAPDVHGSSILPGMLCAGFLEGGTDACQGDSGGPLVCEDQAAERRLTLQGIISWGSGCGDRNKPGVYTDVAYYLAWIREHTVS
In words: Factor XIIa inhibitory activity in vitro (fluorogenic substrate H-DPro-Phe-Arg-AFC). Format: biochemical. The settings on record: 25° C., class symbols, read-out: Human FXIIa IC50. How it is done: Determination of the % Inhibition for FXIIa
Human Factor XIIa (Enzyme Research Laboratories) was incubated at 25° C. with the fluorogenic substrate H-DPro-Phe-Arg-AFC and various concentrations of the test compound. Residual enzyme activity (initial rate of reaction) was determined by measuring the change in […] at 410 nm and the IC50 value for the test compound was determined.
The IC50 is the concentration at which inhibition is half-maximal. In the case of `Cc1cc(C)c(C(=O)N[C@@H](Cc2ccc(F)c(F)c2)C(=O)NCc2ccc3c(N)nccc3c2)[nH]1` [Example 0.01], the IC50 is 3 to 10 µM.

As to `CC(C)N1CCCC[C@@H]1C(=O)N[C@@H](Cc1ccc(F)c(F)c1)C(=O)NCc1ccc2c(N)nccc2c1` [Example 0.02], the IC50 lay in the range of 0.1 to 0.279 µM.

For `Cn1cc(C(=O)N[C@@H](Cc2ccc(F)c(F)c2)C(=O)NCc2ccc3c(N)nccc3c2)cn1` [Example 0.03], the IC50 lay in the range of 10 to 40 µM.

With `Nc1nccc2cc(CNC(=O)[C@H](Cc3ccc(F)c(F)c3)NC(=O)c3ccccc3N3CCOCC3)ccc12` [Example 0.04], the IC50 was in the range of 10 to 40 µM.

Regarding `Nc1nccc2cc(CNC(=O)[C@H](Cc3ccc(F)c(F)c3)NC(=O)c3cccc(-n4cccn4)c3)ccc12` [Example 0.05], the IC50 fell in the range of 3 to 10 µM.

Regarding `Cc1nc(C(=O)N[C@@H](Cc2ccc(F)c(F)c2)C(=O)NCc2ccc3c(N)nccc3c2)c(C)o1` [Example 0.06], the IC50 was 10 to 40 µM.

On to `CC(C)n1cc(C(=O)N[C@@H](Cc2ccc(F)c(F)c2)C(=O)NCc2ccc3c(N)nccc3c2)cn1` [Example 0.07], for which the IC50 is 10 to 40 µM.

For `CN1CCN(c2cccc(C(=O)N[C@@H](Cc3ccc(F)c(F)c3)C(=O)NCc3ccc4c(N)nccc4c3)c2)CC1` [Example 0.08], the IC50 is 3 to 10 µM.

As to `Nc1nccc2cc(CNC(=O)[C@H](Cc3ccc(F)c(F)c3)NC(=O)c3cccc(-n4ccnc4)c3)ccc12` [Example 0.09], the IC50 is 3 to 10 µM.

`Nc1nccc2cc(CNC(=O)[C@H](Cc3ccc(F)c(F)c3)NC(=O)c3ccc(-n4ccnc4)nc3)ccc12` [Example 0.10]: the IC50 was 10 to 40 µM.

Regarding `N#Cc1ccc(C(=O)N[C@@H](Cc2ccc(F)c(F)c2)C(=O)NCc2ccc3c(N)nccc3c2)nc1` [Example 0.11], the IC50 fell in the range of 10 to 40 µM.

In the case of `COc1cncc(C(=O)N[C@@H](Cc2ccc(F)c(F)c2)C(=O)NCc2ccc3c(N)nccc3c2)c1` [Example 0.12], the IC50 was in the range of 3 to 10 µM.

In the case of `Nc1nccc2cc(CNC(=O)[C@H](Cc3ccc(F)c(F)c3)NC(=O)c3ccc[nH]c3=O)ccc12` [Example 0.13], the IC50 was in the range of 3 to 10 µM.

With `Cc1cc(C(=O)N[C@@H](Cc2ccc(F)c(F)c2)C(=O)NCc2ccc3c(N)nccc3c2)n[nH]1` [Example 0.14], the IC50 is 3 to 10 µM.

As for `Nc1nccc2cc(CNC(=O)[C@H](Cc3ccc(F)c(F)c3)NC(=O)c3cccnn3)ccc12` [Example 0.15], the IC50 lay in the range of 3 to 10 µM.

`Nc1nccc2cc(CNC(=O)[C@H](Cc3ccc(F)c(F)c3)NC(=O)c3ccnnc3)ccc12` [Example 0.16]: the IC50 is 3 to 10 µM.

Consider `Cn1ccc(C(=O)N[C@@H](Cc2ccc(F)c(F)c2)C(=O)NCc2ccc3c(N)nccc3c2)n1` [Example 0.17], for which the half-inhibitory concentration (IC50) is 10 to 40 µM.

As to `Nc1nccc2cc(CNC(=O)[C@H](Cc3ccc(F)c(F)c3)NC(=O)c3ncccn3)ccc12` [Example 0.18], the IC50 lay within 10 to 40 µM.

Regarding `CN(C)[C@H](CCc1ccccc1)C(=O)N[C@@H](Cc1ccc(F)c(F)c1)C(=O)NCc1ccc2c(N)nccc2c1` [Example 0.19], the IC50 fell in the range of 10 to 40 µM.

With `Nc1nccc2cc(CNC(=O)[C@H](Cc3ccc(F)c(F)c3)NC(=O)c3cncnc3)ccc12` [Example 0.20], the IC50 fell in the range of 3 to 10 µM.

In the case of `Cc1nocc1C(=O)N[C@@H](Cc1ccc(F)c(F)c1)C(=O)NCc1ccc2c(N)nccc2c1` [Example 0.21], the IC50 was in the range of 3 to 10 µM.

For the compound `Cc1cnc(C(=O)N[C@@H](Cc2ccc(F)c(F)c2)C(=O)NCc2ccc3c(N)nccc3c2)cn1` [Example 0.22], the IC50 was 3 to 10 µM.

As for `Nc1nccc2cc(CNC(=O)[C@H](Cc3ccc(F)c(F)c3)NC(=O)c3cccnc3)ccc12` [Example 0.23], the IC50 was 10 to 40 µM.

Turning to `Nc1nccc2cc(CNC(=O)[C@H](Cc3ccc(F)c(F)c3)NC(=O)CCCOCc3ccccc3)ccc12` [Example 0.24], the IC50 is 10 to 40 µM.

With `N#Cc1cccc(C(=O)N[C@@H](Cc2ccc(F)c(F)c2)C(=O)NCc2ccc3c(N)nccc3c2)c1` [Example 0.25], the IC50 lay in the range of 3 to 10 µM.

As to `Cc1nc2ccncc2cc1C(=O)N[C@@H](Cc1ccc(F)c(F)c1)C(=O)NCc1ccc2c(N)nccc2c1` [Example 0.26], the IC50 was in the range of 10 to 40 µM.

For `Nc1nccc2cc(CNC(=O)[C@H](Cc3ccc(F)c(F)c3)NC(=O)c3ccc(-c4cncnc4)cc3)ccc12` [Example 0.27], the IC50 lay within 10 to 40 µM.

With `Nc1nccc2cc(CNC(=O)[C@H](Cc3ccc(F)c(F)c3)NC(=O)c3ccc4cnccc4c3)ccc12` [Example 0.28], the half-inhibitory concentration (IC50) lay within 10 to 40 µM.

Turning to `Nc1nccc2cc(CNC(=O)[C@H](Cc3ccc(F)c(F)c3)NC(=O)c3ccn[nH]3)ccc12` [Example 0.29], the half-inhibitory concentration (IC50) lay within 3 to 10 µM.

With `Nc1nccc2cc(CNC(=O)[C@H](Cc3ccc(F)c(F)c3)NC(=O)c3ccno3)ccc12` [Example 0.30], the IC50 is 10 to 40 µM.

With `Nc1nccc2cc(CNC(=O)[C@H](Cc3ccc(F)c(F)c3)NC(=O)c3ccc4ncccc4n3)ccc12` [Example 0.31], the IC50 lay within 10 to 40 µM.

In the case of `COc1cc(C(=O)N[C@@H](Cc2ccc(F)c(F)c2)C(=O)NCc2ccc3c(N)nccc3c2)on1` [Example 0.32], the IC50 lay in the range of 3 to 10 µM.

`Nc1nccc2cc(CNC(=O)[C@H](Cc3ccc(F)c(F)c3)NC(=O)c3cscn3)ccc12` [Example 0.33]: the IC50 is 3 to 10 µM.

As to `Nc1nccc2cc(CNC(=O)[C@H](Cc3ccc(F)c(F)c3)NC(=O)c3ccccc3)ccc12` [Example 0.34], the half-maximal inhibitory concentration (IC50) is 10 to 40 µM.

In the case of `Nc1nccc2cc(CNC(=O)[C@H](Cc3ccc(F)c(F)c3)NC(=O)c3ccncc3)ccc12` [Example 0.35], the IC50 lay within 10 to 40 µM.

For `Cc1cc2ncc(C(=O)N[C@@H](Cc3ccc(F)c(F)c3)C(=O)NCc3ccc4c(N)nccc4c3)c(C)n2n1` [Example 0.36], the IC50 lay in the range of 3 to 10 µM.

For `Nc1nccc2cc(CNC(=O)[C@H](Cc3ccc(F)c(F)c3)NC(=O)c3cnc4n(c3=O)CCS4)ccc12` [Example 0.37], the IC50 was in the range of 1 to 3 µM.

Take `CC(C)n1nnc2cc(C(=O)N[C@@H](Cc3ccc(F)c(F)c3)C(=O)NCc3ccc4c(N)nccc4c3)ccc21` [Example 0.38]: the IC50 was in the range of 10 to 40 µM.

`Nc1nccc2cc(CNC(=O)[C@H](Cc3ccc(F)c(F)c3)NC(=O)COCc3ccccc3)ccc12` [Example 0.39]: the IC50 was in the range of 10 to 40 µM.

Regarding `Nc1nccc2cc(CNC(=O)[C@H](Cc3ccc(F)c(F)c3)NC(=O)c3ccc4ncsc4c3)ccc12` [Example 0.40], the IC50 lay within 10 to 40 µM.

`Nc1nccc2cc(CNC(=O)[C@H](Cc3ccc(F)c(F)c3)NC(=O)CCS(=O)(=O)c3ccccc3)ccc12` [Example 0.41]: the IC50 lay in the range of 3 to 10 µM.

In the case of `COc1ncccc1C(=O)N[C@@H](Cc1ccc(F)c(F)c1)C(=O)NCc1ccc2c(N)nccc2c1` [Example 0.42], the IC50 is 10 to 40 µM.

As to `CN1CCC(C(=O)N[C@@H](Cc2ccc(F)c(F)c2)C(=O)NCc2ccc3c(N)nccc3c2)CC1` [Example 0.43], the IC50 lay within 3 to 10 µM.

For `Nc1nccc2cc(CNC(=O)[C@H](Cc3ccc(F)c(F)c3)NC(=O)C3=CCC(=O)NN3)ccc12` [Example 0.44], the IC50 fell in the range of 3 to 10 µM.

In the case of `Nc1nccc2cc(CNC(=O)[C@H](Cc3ccc(F)c(F)c3)NC(=O)c3cccnc3N3CCOCC3)ccc12` [Example 0.45], the IC50 fell in the range of 10 to 40 µM.

Take `Nc1nccc2cc(CNC(=O)[C@H](Cc3ccc(F)c(F)c3)NC(=O)CCc3ccccc3)ccc12` [Example 0.46]: the IC50 lay in the range of 10 to 40 µM.

With `CS(=O)(=O)c1cccc(C(=O)N[C@@H](Cc2ccc(F)c(F)c2)C(=O)NCc2ccc3c(N)nccc3c2)c1` [Example 0.47], the IC50 lay in the range of 3 to 10 µM.

In the case of `Nc1nccc2cc(CNC(=O)[C@H](Cc3ccc(F)c(F)c3)NC(=O)c3cc4ccccc4o3)ccc12` [Example 0.48], the IC50 was in the range of 10 to 40 µM.

For `Nc1nccc2cc(CNC(=O)[C@H](Cc3ccc(F)c(F)c3)NC(=O)c3ccc(F)c(F)c3)ccc12` [Example 0.49], the IC50 was 10 to 40 µM.

With `Cc1cccnc1C(=O)N[C@@H](Cc1ccc(F)c(F)c1)C(=O)NCc1ccc2c(N)nccc2c1` [Example 0.50], the IC50 fell in the range of 3 to 10 µM.

With `Nc1nccc2cc(CNC(=O)[C@H](Cc3ccc(F)c(F)c3)NC(=O)CCc3nnc(-c4ccccc4)o3)ccc12` [Example 0.51], the IC50 was in the range of 10 to 40 µM.

For `Cn1cc(C(=O)N[C@@H](Cc2ccc(F)c(F)c2)C(=O)NCc2ccc3c(N)nccc3c2)ccc1=O` [Example 0.52], the IC50 is 3 to 10 µM.

Take `Cc1nc2ccccn2c1C(=O)N[C@@H](Cc1ccc(F)c(F)c1)C(=O)NCc1ccc2c(N)nccc2c1` [Example 0.53]: the IC50 fell in the range of 10 to 40 µM.

Regarding `CC(C)c1cc(C(=O)N[C@@H](Cc2ccc(F)c(F)c2)C(=O)NCc2ccc3c(N)nccc3c2)[nH]n1` [Example 0.54], the IC50 was 3 to 10 µM.

As for `CCn1nc(C)cc1C(=O)N[C@@H](Cc1ccc(F)c(F)c1)C(=O)NCc1ccc2c(N)nccc2c1` [Example 0.55], the IC50 fell in the range of 10 to 40 µM.

`Nc1nccc2cc(CNC(=O)[C@H](Cc3ccc(F)c(F)c3)NC(=O)C3CCC(O)CC3)ccc12` (stereo partly drawn) [Example 0.56]: the IC50 lay in the range of 10 to 40 µM.

Regarding `Nc1nccc2cc(CNC(=O)[C@H](Cc3ccc(F)c(F)c3)NC(=O)c3cccc(O)n3)ccc12` [Example 0.57], the IC50 was in the range of 1 to 3 µM.

With `COc1cc(C(=O)N[C@@H](Cc2ccc(F)c(F)c2)C(=O)NCc2ccc3c(N)nccc3c2)ccc1F` [Example 0.58], the IC50 was in the range of 3 to 10 µM.

Turning to `Nc1nccc2cc(CNC(=O)[C@H](Cc3ccc(F)c(F)c3)NC(=O)c3cc(CO)ccn3)ccc12` [Example 0.59], the IC50 is 3 to 10 µM.

With `CNS(=O)(=O)c1cccc(C(=O)N[C@@H](Cc2ccc(F)c(F)c2)C(=O)NCc2ccc3c(N)nccc3c2)c1` [Example 0.60], the IC50 was in the range of 3 to 10 µM.

These data come from patent publication US20220298138A1, “ENZYME INHIBITORS” (KALVISTA PHARMACEUTICALS LIMITED, priority 2019, published 2022).
